Measurements: PubChem BioAssay (NCI)
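Method: 48-hour compound exposure of cells in 96-well plates, five concentrations, linear interpolation of endpoints. TGI marks complete inhibition of growth.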

Assays:
Experiment in all cases: NCI anticancer screen, dose series, 48 h
[1] = tested on: 786-0 renal
[2] = tested on: A549 NSCLC
[3] = tested on: ACHN renal
[4] = tested on: BT-549 breast
[5] = tested on: CAKI-1 renal
[6] = tested on: CCRF-CEM leukemia
[7] = tested on: COLO 205 colon
[8] = tested on: DU-145 prostate
[9] = tested on: EKVX NSCLC
[10] = tested on: HCC-2998 colon
[11] = tested on: HCT-116 colon
[12] = tested on: HCT-15 colon
[13] = tested on: HL-60(TB) leukemia
[14] = tested on: HOP-62 NSCLC
[15] = tested on: HS 578T breast
[16] = tested on: HT29 colon
[17] = tested on: IGROV1 ovarian
[18] = tested on: K-562 leukemia
[19] = tested on: KM12 colon
[20] = tested on: M14 melanoma
[21] = tested on: MCF7 breast
[22] = tested on: MDA-MB-231 breast
[23] = tested on: MDA-MB-435
[24] = tested on: MDA-N
[25] = tested on: MOLT-4 leukemia
[26] = tested on: NCI-H226 lung
[27] = tested on: NCI-H23 lung
[28] = tested on: NCI-H460 lung
[29] = tested on: NCI-H522 lung
[30] = tested on: NCI/ADR-RES ovarian
[31] = tested on: OVCAR-3 ovarian
[32] = tested on: OVCAR-4 ovarian
[33] = tested on: OVCAR-8 ovarian
[34] = tested on: PC-3 prostate
[35] = tested on: RPMI-8226 leukemia
[36] = tested on: RXF 393 renal
[37] = tested on: SF-268 CNS
[38] = tested on: SF-295 CNS
[39] = tested on: SF-539 CNS
[40] = tested on: SK-MEL-28 melanoma
[41] = tested on: SK-MEL-5 melanoma
[42] = tested on: SK-OV-3 ovarian
[43] = tested on: SN12C renal
[44] = tested on: SNB-19 CNS
[45] = tested on: SNB-75 CNS
[46] = tested on: SR leukemia
[47] = tested on: SW-620 colon
[48] = tested on: T-47D breast
[49] = tested on: TK-10 renal
[50] = tested on: U251 CNS
[51] = tested on: UACC-257 melanoma
[52] = tested on: UACC-62 melanoma
[53] = tested on: UO-31 renal
[54] = tested on: A498 renal
[55] = tested on: HOP-92 NSCLC
[56] = tested on: LOX IMVI melanoma
[57] = tested on: MALME-3M melanoma
[58] = tested on: OVCAR-5 ovarian
[59] = tested on: SK-MEL-2 melanoma

## CC(=O)C12C[C@](C#N)(N3CCCCCC3)C1C=Cc1ccccc12 (stereo not given in full)
[1]
  TGI: > 100 µM
[2]
  TGI: > 100 µM
[3]
  TGI: > 100 µM
[4]
  TGI: > 100 µM
[5]
  TGI: > 100 µM
[6]
  TGI: > 100 µM
[7]
  TGI: > 100 µM
[8]
  TGI: > 100 µM
[9]
  TGI: > 100 µM
[10]
  TGI: > 100 µM
[11]
  TGI: > 100 µM
[12]
  TGI: > 100 µM
[13]
  TGI: > 100 µM
[14]
  TGI: > 100 µM
[15]
  TGI: > 100 µM
[16]
  TGI: > 100 µM
[17]
  TGI: > 100 µM
[18]
  TGI: > 100 µM
[19]
  TGI: > 100 µM
[20]
  TGI: > 100 µM
[21]
  TGI: > 100 µM
[22]
  TGI: > 100 µM
[23]
  TGI: > 100 µM
[24]
  TGI: > 100 µM
[25]
  TGI: > 100 µM
[26]
  TGI: > 100 µM
[27]
  TGI: > 100 µM
[28]
  TGI: > 100 µM
[29]
  TGI: > 100 µM
[30]
  TGI: > 100 µM
[31]
  TGI: > 100 µM
[32]
  TGI: > 100 µM
[33]
  TGI: > 100 µM
[34]
  TGI: > 100 µM
[35]
  TGI: > 100 µM
[36]
  TGI: > 100 µM
[37]
  TGI: > 100 µM
[38]
  TGI: > 100 µM
[39]
  TGI: > 100 µM
[40]
  TGI: > 100 µM
[41]
  TGI: > 100 µM
[42]
  TGI: > 100 µM
[43]
  TGI: > 100 µM
[44]
  TGI: > 100 µM
[45]
  TGI: > 100 µM
[46]
  TGI: > 100 µM
[47]
  TGI: > 100 µM
[48]
  TGI: > 100 µM
[49]
  TGI: > 100 µM
[50]
  TGI: > 100 µM
[51]
  TGI: > 100 µM
[52]
  TGI: > 100 µM
[53]
  TGI: > 100 µM

## COc1cc([C@H]2Oc3c(OC)cc(CCCO)cc3[C@@H]2CO)ccc1O
[1]
  TGI: > 100 µM
[54]
  TGI: > 100 µM
[2]
  TGI: > 100 µM
[3]
  TGI: > 100 µM
[4]
  TGI: > 100 µM
[6]
  TGI: > 100 µM
[7]
  TGI: > 100 µM
[8]
  TGI: > 100 µM
[9]
  TGI: > 100 µM
[10]
  TGI: > 100 µM
[11]
  TGI: > 100 µM
[12]
  TGI: > 100 µM
[13]
  TGI: > 100 µM
[14]
  TGI: > 100 µM
[55]
  TGI: > 100 µM
[15]
  TGI: > 100 µM
[16]
  TGI: > 100 µM
[17]
  TGI: > 100 µM
[18]
  TGI: > 100 µM
[19]
  TGI: > 100 µM
[56]
  TGI: > 100 µM
[20]
  TGI: > 100 µM
[57]
  TGI: > 100 µM
[21]
  TGI: > 100 µM
[22]
  TGI: > 100 µM
[23]
  TGI: > 100 µM
[24]
  TGI: > 100 µM
[25]
  TGI: > 100 µM
[26]
  TGI: > 100 µM
[27]
  TGI: > 100 µM
[28]
  TGI: > 100 µM
[29]
  TGI: > 100 µM
[30]
  TGI: > 100 µM
[31]
  TGI: > 100 µM
[32]
  TGI: > 100 µM
[58]
  TGI: > 100 µM
[33]
  TGI: > 100 µM
[34]
  TGI: > 100 µM
[35]
  TGI: > 100 µM
[36]
  TGI: > 100 µM
[37]
  TGI: > 100 µM
[38]
  TGI: > 100 µM
[39]
  TGI: > 100 µM
[59]
  TGI: > 100 µM
[40]
  TGI: > 100 µM
[41]
  TGI: > 100 µM
[42]
  TGI: > 100 µM
[43]
  TGI: > 100 µM
[44]
  TGI: > 100 µM
[45]
  TGI: > 100 µM
[46]
  TGI: > 100 µM
[47]
  TGI: > 100 µM
[48]
  TGI: > 100 µM
[49]
  TGI: > 100 µM
[50]
  TGI: > 100 µM
[51]
  TGI: > 100 µM
[52]
  TGI: > 100 µM
[53]
  TGI: > 100 µM

## CCCCc1ccc(-n2sc3ncccc3c2=O)cc1
[1]
  TGI: 25.2 µM
[2]
  TGI: 99.4 µM
[3]
  TGI: 23.5 µM
[4]
  TGI: 35.7 µM
[7]
  TGI: 33.3 µM
[8]
  TGI: > 100 µM
[9]
  TGI: 25.2 µM
[10]
  TGI: 33.7 µM
[11]
  TGI: 26.3 µM
[12]
  TGI: 19.9 µM
[13]
  TGI: 6.07 µM
[14]
  TGI: 36.2 µM
[15]
  TGI: 43.2 µM
[16]
  TGI: 33.1 µM
[17]
  TGI: 33.3 µM
[19]
  TGI: 32.5 µM
[56]
  TGI: 43.6 µM
[20]
  TGI: 26.8 µM
[57]
  TGI: 14.9 µM
[21]
  TGI: 72.2 µM
[22]
  TGI: 32 µM
[23]
  TGI: 37.5 µM
[24]
  TGI: 29.3 µM
[25]
  TGI: 57.7 µM
[26]
  TGI: 64.2 µM
[27]
  TGI: 41.9 µM
[28]
  TGI: 26 µM
[29]
  TGI: 8.4 µM
[30]
  TGI: 43.9 µM
[31]
  TGI: 42.5 µM
[32]
  TGI: 58 µM
[58]
  TGI: 40.6 µM
[33]
  TGI: 45.7 µM
[34]
  TGI: 25.5 µM
[35]
  TGI: > 100 µM
[37]
  TGI: 47.4 µM
[38]
  TGI: 31.2 µM
[39]
  TGI: 41 µM
[59]
  TGI: 43.9 µM
[40]
  TGI: 33.1 µM
[41]
  TGI: 26.4 µM
[42]
  TGI: 90.5 µM
[43]
  TGI: 37.7 µM
[44]
  TGI: > 100 µM
[45]
  TGI: 50.3 µM
[46]
  TGI: 60.4 µM
[47]
  TGI: 72.1 µM
[48]
  TGI: 45.7 µM
[49]
  TGI: 27.4 µM
[50]
  TGI: 42.7 µM
[51]
  TGI: 43.7 µM
[52]
  TGI: 43.9 µM
[53]
  TGI: 34.7 µM

## O=C1NC2CCCCC2N=C1/C(C(=O)c1ccccc1)=C(\O)c1ccccc1 (stereo not given)
[1]
  TGI: > 100 µM
[54]
  TGI: > 100 µM
[2]
  TGI: > 100 µM
[3]
  TGI: > 100 µM
[4]
  TGI: 55.3 µM
[5]
  TGI: > 100 µM
[6]
  TGI: 84.7 µM
[7]
  TGI: > 100 µM
[8]
  TGI: > 100 µM
[9]
  TGI: > 100 µM
[10]
  TGI: > 100 µM
[11]
  TGI: > 100 µM
[12]
  TGI: > 100 µM
[13]
  TGI: > 100 µM
[14]
  TGI: > 100 µM
[15]
  TGI: > 100 µM
[16]
  TGI: > 100 µM
[17]
  TGI: > 100 µM
[18]
  TGI: > 100 µM
[19]
  TGI: > 100 µM
[56]
  TGI: > 100 µM
[20]
  TGI: > 100 µM
[57]
  TGI: > 100 µM
[21]
  TGI: > 100 µM
[22]
  TGI: 83 µM
[23]
  TGI: > 100 µM
[24]
  TGI: > 100 µM
[25]
  TGI: 79.3 µM
[26]
  TGI: 46.8 µM
[27]
  TGI: > 100 µM
[28]
  TGI: > 100 µM
[29]
  TGI: 61.9 µM
[30]
  TGI: > 100 µM
[31]
  TGI: > 100 µM
[58]
  TGI: > 100 µM
[33]
  TGI: 86.6 µM
[34]
  TGI: > 100 µM
[35]
  TGI: > 100 µM
[36]
  TGI: > 100 µM
[37]
  TGI: > 100 µM
[38]
  TGI: > 100 µM
[39]
  TGI: > 100 µM
[59]
  TGI: > 100 µM
[40]
  TGI: > 100 µM
[41]
  TGI: > 100 µM
[42]
  TGI: 84.8 µM
[43]
  TGI: > 100 µM
[44]
  TGI: > 100 µM
[46]
  TGI: 92.3 µM
[47]
  TGI: > 100 µM
[48]
  TGI: > 100 µM
[49]
  TGI: > 100 µM
[50]
  TGI: > 100 µM
[51]
  TGI: > 100 µM
[52]
  TGI: 68.9 µM
[53]
  TGI: 78.7 µM
